Data reported in patent US12569453B2, “Use of tapinarof for the treatment of atopic dermatitis” (Dermavant Sciences GmbH, priority 2018, dated 2026).

Test system: adult subjects with psoriasis
Assay: Phase II/2b psoriasis study: safety and tolerability
Type: in vivo, human
Experimental: Safety was assessed by the monitoring and recording of all AEs and serious adverse events (SAEs); evaluation of local (application site) tolerability; monitoring of hematology (including peripheral blood Immunophenotyping and Immunoglobulins), clinical chemistry, and vital signs; and the performance of ECGs and physical examinations.
Safety assessments included incidence, frequency and severity of AEs, evaluation of local (application-site) tolerability, clinical laboratory parameters, vital signs, electrocardiogram changes, and physical examinations. An unblinded Independent Data Monitoring Committee monitored patient safety. Investigators assessed the overall degree of irritation at the application sites using a scale of 0 (no irritation) to 4 (very severe/strong reaction) at each study visit. A score of 3 or 4 was reported as an AE. Study treatment was discontinued if a score of 4 was noted. Subject-reported tolerability was assessed using a 5-point tolerability scale of 0 (none) to 4 (strong/severe) to assess the presence and degree of burning/stinging and itching at the application site within 2 hours following application of tapinarof or vehicle.

[1] = all cases in active treatment groups
[2] = pooled active treatment groups (n=152)
[3] = pooled tapinarof groups (n=152)

Q: Which results are given for `CC(C)c1c(O)cc(/C=C/c2ccccc2)cc1O` [Tapinarof, 3,5-Dihydroxy-4-isopropyl-trans-stilbene]?
A: Application-site dermatitis (0.5% BID): 0 n; Dermatitis allergic (0.5% BID): 0 n; Miliaria (0.5% BID): 0 n; Urticaria (0.5% BID): 0 n; headache (0.5% BID): 0 n; Acne (0.5% QD): 0 n; Dermatitis allergic (0.5% QD): 0 n; Serious TEAEs (0.5% QD): 0 n; Urticaria (0.5% QD): 0 n; Vomiting (0.5% QD): 0 n; Miliaria (1% BID): 0 n; Urticaria (1% BID): 0 n; Vomiting (1% BID): 0 n; Nasopharyngitis (1% BID, listed as GSK2894512): 1 n; folliculitis (1% BID, listed as GSK2894512): 8 n; Acne (1% QD): 0 n; Dermatitis allergic (1% QD): 0 n; Nasopharyngitis (1% QD): 0 n; Vomiting (1% QD): 0 n; folliculitis, median duration (resolved events) (active treatment groups): 55 days; folliculitis, median time to onset (active treatment groups): 26 days; headache, median duration (active treatment groups): 3 days; headache, median time to onset (active treatment groups): 2.5 days; nasopharyngitis, median duration (active treatment groups): 12 days; nasopharyngitis, median time to onset (active treatment groups): 13 days; contact dermatitis, median duration [1]: 32 days; contact dermatitis, median time to onset [1]: 30 days; subjects with serious TEAEs (all in Tapinarof treatment groups, none treatment-related): 7 subjects; Nasopharyngitis [2]: 5%; Vomiting [2]: 2%; headache [2]: 4%; subjects permanently discontinuing treatment due to TEAEs [2]: 10%; subjects with TEAEs [2]: 56%; subjects with mild TEAEs [2]: 27%; subjects with moderate TEAEs [2]: 22%; subjects with severe TEAEs [2]: 7%; subjects with treatment-related TEAEs [2]: 22%; treatment-related monocyte count decreased [2]: 1%; contact dermatitis [3]: 8%; folliculitis [3]: 13%; treatment-related folliculitis [3]: 10%; subjects with TEAEs considered related to treatment (treatment groups pooled): 34 subjects; subjects with at least one AE (treatment groups pooled): 89 subjects; subjects with at least one TEAE (treatment groups pooled): 85 subjects
